From US10463532B2, “Method for placing implant in choroid that can less invasively and simply place implant in choroid in optic disc-macula area” (priority 2016, dated 2019)

How the values were obtained:
[1] = Experiment 2: dexamethasone concentration in the retina after DEX-PLA implant placed in the choroid near the optic disc (LC/MS/MS); type: in vivo, Japanese white rabbits; settings: Japanese white, rabbit, other: intrachoroidal implant near the optic disc, 3 μg
Text: Nine 3-month-old Japanese white rabbits (purchased from Japan SLC, Inc., weight: 2 to 2.5 kg) were used as subjects, and the implant was placed in one of the eyes of each rabbit.
The implant was placed in the choroid using the method for placing an implant in the choroid according to the embodiments of the invention. Specifically, the conjunctiva was incised, and an injection needle having a size of 25G was inserted between the conjunctiva and the sclera. The tip of the injection needle was advanced to the vicinity of the optic disc along the surface of the sclera. After placing a vitrectomy lens over the cornea so that the eyeground could be observed, the tip of the injection needle appearing white was observed while observing the eyeground through the vitrectomy lens and pressing the sclera using the tip of the injection needle. The tip of the injection needle was moved to determine an appropriate insertion position of the implant in the vicinity of the optic disc, and the tip of the injection needle was inserted diagonally into the sclera. The tip of the injection needle was advanced into the choroid, and the implant was inserted into the choroid through the tip opening formed at the tip of the injection needle.
The eyeball was removed from each rabbit (three rabbits) belonging to each group when 24 hours, 1 week, and 3 weeks had elapsed after the placement of the implant.

[2] = Experiment 1: dexamethasone concentration in the retina after intravitreal, intrascleral or intrachoroidal gelatin implant (LC/MS/MS); type: in vivo, Japanese white rabbits; settings: Japanese white, rabbit, 3 μg
Method: Experiments were performed to determine the drug release effect of an intrachoroidal implant, an intravitreal implant, and an intrascleral implant. In Experiment 1, the implant was placed in the choroid using the known method illustrated in FIG. 10. […] Therefore, the implant was placed in the choroid using the known method in order to compare the intravitreal implant, the intrascleral implant, and the intrachoroidal implant as to the drug release effect.
Gelatin was cut to have a size of 0.3 (length)×0.3 (width)×0.1 (thick) mm.
Twelve 3-month-old Japanese white rabbits (purchased from Japan SLC, Inc., weight: 2 to 2.5 kg) were used as subjects. The rabbits were equally divided into an intrachoroidal implant group, an intravitreal implant group, and an intrascleral implant group, and the implant was placed in one of the eyes of each rabbit belonging to each group.
Regarding the intrachoroidal implant group, the vitreous gel in the eyeball was liquefied, and the implant was placed in the choroid using the known method for placing an implant in the choroid. The implant was placed in the choroid at a position 6 mm below the cornea.
Regarding the intravitreal implant group, the implant was placed in the vitreous body at a position 2 mm above the cornea.
Regarding the intrascleral implant group, the implant was placed in the sclera at a position 6 mm below the cornea.
The eyeball was removed from each rabbit (four rabbits) belonging to each group when 1, 3, and 24 hours had elapsed after the placement of the implant. […] In FIG. 14, the symbol “*” indicates P<0.05, and the symbol “**” indicates P<0.01.

Compound `C[C@@H]1C[C@H]2[C@@H]3CCC4=CC(=O)C=C[C@]4(C)[C@@]3(F)[C@@H](O)C[C@]2(C)[C@@]1(O)C(=O)CO` [dexamethasone] has a concentration at 1 week [1] of 41.2 ± 14.2 ng/g, a concentration at 3 weeks [1] of 17.2 ± 11.3 ng/g and a concentration at 24 h [1] of 159 ± 28.2 ng/g. For the same compound, the concentration at 1 h ([2]; other: intrachoroidal implant) was 409 ± 115 ng/g, the concentration at 3 h ([2]; other: intrachoroidal implant) was 23.8 ± 10.2 ng/g and the concentration at 24 h ([2]; other: intrachoroidal implant) was 4.7 ± 3.3 ng/g. The concentration at 1 h ([2]; other: intrascleral implant) was 122 ± 79.7 ng/g, the concentration at 3 h ([2]; other: intrascleral implant) was 5.4 ± 4 ng/g and the concentration at 24 h ([2]; other: intrascleral implant) was 3.3 ± 3.2 ng/g. It also gave a concentration at 1 h ([2]; other: intravitreal implant) of 13.5 ± 8.7 ng/g, a concentration at 3 h ([2]; other: intravitreal implant) of 3.6 ± 4.2 ng/g and a concentration at 24 h ([2]; other: intravitreal implant) of 4.2 ± 4.5 ng/g.
